# According to the NIST ThermoML archive (doi:10.1021/je060092t):
# Assay: cn = amount concentration of the nth substance listed, in mol/dm3
# Details: Liquid, Taylor dispersion method
SMILES,"binary diffusion coefficient (298.15 K, c1 = 0.1) [m2/s]","binary diffusion coefficient (298.15 K, c1 = 0.002) [m2/s]","binary diffusion coefficient (298.15 K, c1 = 0.004) [m2/s]","binary diffusion coefficient (298.15 K, c1 = 0.006) [m2/s]","binary diffusion coefficient (298.15 K, c1 = 0.008) [m2/s]","binary diffusion coefficient (303.15 K, c1 = 0.002) [m2/s]","binary diffusion coefficient (303.15 K, c1 = 0.004) [m2/s]","binary diffusion coefficient (303.15 K, c1 = 0.006) [m2/s]","binary diffusion coefficient (303.15 K, c1 = 0.008) [m2/s]","binary diffusion coefficient (308.15 K, c1 = 0.002) [m2/s]","binary diffusion coefficient (308.15 K, c1 = 0.004) [m2/s]","binary diffusion coefficient (308.15 K, c1 = 0.006) [m2/s]","binary diffusion coefficient (308.15 K, c1 = 0.008) [m2/s]","binary diffusion coefficient (312.15 K, c1 = 0.002) [m2/s]","binary diffusion coefficient (312.15 K, c1 = 0.004) [m2/s]","binary diffusion coefficient (312.15 K, c1 = 0.006) [m2/s]","binary diffusion coefficient (312.15 K, c1 = 0.008) [m2/s]"
OC[C@H]1O[C@@](CO)(O[C@H]2O[C@H](CO)[C@@H](O)[C@H](O)[C@H]2O)[C@@H](O)[C@@H]1O [D-sucrose] + O,5.26e-10,,,,,,,,,,,,,,,,
[Cl-].[K+] [potassium chloride] + O,1.81e-09,,,,,,,,,,,,,,,,
OC[C@H]1O[C@@H]2O[C@H]3[C@H](O)[C@@H](O)[C@@H](O[C@H]4[C@H](O)[C@@H](O)[C@@H](O[C@H]5[C@H](O)[C@@H](O)[C@@H](O[C@H]6[C@H](O)[C@@H](O)[C@@H](O[C@H]7[C@H](O)[C@@H](O)[C@@H](O[C@H]8[C@H](O)[C@@H](O)[C@@H](O[C@H]1[C@H](O)[C@H]2O)O[C@@H]8CO)O[C@@H]7CO)O[C@@H]6CO)O[C@@H]5CO)O[C@@H]4CO)O[C@@H]3CO [β-cyclodextrin] + O,,3.24e-10,3.23e-10,3.21e-10,3.18e-10,3.89e-10,3.88e-10,3.81e-10,3.78e-10,4.3e-10,4.28e-10,4.27e-10,4.23e-10,4.56e-10,4.54e-10,4.54e-10,4.53e-10
